The nature of data set [1]: Dynamic vapor sorption (DVS) hygroscopicity. It counts as physicochemical. The following applies: for moisture uptake / weight gain (DVS): at 90% relative humidity.
Data set [2] is described as follows: Slurry test in water. It counts as physicochemical. The source says:
The source of water is believed to be moisture in the air during material transfer.

The nature of data set [3]: Solubility of Compound I over a greater pH range. Particulars: aqueous buffer.
A short description of data set [4]: Dissolution rate / kinetic solubility in water at pH 3.
The nature of data set [5]: Photostability of solid forms, photoexposure 0.9 M Lux-hrs, HPLC analysis. It counts as physicochemical. The source says: FIG. 6 compares the photodegradation behaviors of amorphous Compound I (vertical stripes), Compound I Form II (horizontal stripes), and a partially amorphous hydrochloride salt of Compound I (diagonal stripes) during photoexposure at 0.9 M Lux-hrs. The leftmost group of bars represents the overall decrease in HPLC % AN of these three forms of Compound I. The middle group of bars represents the formation of a primary photodegradation impurity resulting from each form of Compound I. The rightmost group of bars similarly represents the formation of a secondary photodegradation impurity that eluted on HPLC at relative retention time (RRT) 1.67.
HPLC analyses of the samples compared the amounts of photodegradation products in each sample. […] For example, Form II of Compound I gave rise to the lowest (2.24% AN) amount of photodegradation in this experiment.
The middle group and rightmost group of bars depict the amounts of two of the major photodegradation impurities formed after the three solid forms of Compound I were photoexposed.

A short description of data set [6]: Stable form screen (slurry in solvents, XRPD). It counts as physicochemical. The following applies: 2 weeks. How it is done:
Approximately 15-60 mg of amorphous (1-{3-[6-(9,9-difluoro-7-{2-[5-(2-methoxycarbonylamino-3-methyl-butyryl)-5-aza-spiro[2.4]hept-6-yl]-3H-imidazol-4-yl}-9H-fluoren-2-yl)-1H-benzoimidazol-2-yl]-2-aza-bicyclo[2.2.1]heptane-2-carbonyl}-2-methyl-propyl)-carbamic acid (HPLC purity of 99.3%) were weighed and transferred to a vial equipped with a mini magnetic stir bar. […] The slurry was allowed to stir for two weeks at room temperature (˜22° C.) and examined periodically.
After two weeks, a sample of 300 μL of the slurry was removed from the vial, transferred to a centrifuge filter (Costar, 0.45 micron) and centrifuged at 1000 rpm for 2 minutes. The solid in the wet cake form were analyzed using XRPD analysis (PANalytical X'Pert PRO X-ray powder diffractometer). This diffractometer uses Cu-Kα radiation at a wavelength of 1.54178 Å, and it operates under reflection mode. Scan range is from 2 to 40 degree 2 theta. The step size is 0.0080 at a scan speed of 0.13°/s, which gives about 5 min per scan. After air drying the small sample, XRPD analysis was performed again to monitor any change in the diffraction pattern between the wet and dry material. Thermogravimetric analysis (TGA) was run on the saturated solution to determine the solubility of the equilibrating solids in the solvent when the solid appeared to be crystalline.

Several values for one entry are separate records, joined by “and”; a condition that tells them apart may be missing. Identical values can stand only once. Like-named read-outs stand apart in the source and are kept apart here.

Regarding `COC(=O)N[C@H](C(=O)N1CC2(CC2)C[C@H]1c1ncc(-c2ccc3c(c2)C(F)(F)c2cc(-c4ccc5nc([C@@H]6[C@H]7CC[C@H](C7)N6C(=O)[C@@H](NC(=O)OC)C(C)C)[nH]c5c4)ccc2-3)[nH]1)C(C)C` [amorphous Compound I], in data set [1], the “hygroscopicity by DVS (words)” value is reported as “hygroscopic”; the “moisture uptake / weight gain (DVS)” value was 5.4% and 5.6%. Also, in data set [1] (any humidity level), the “moisture induced phase transformation” value is given as “does not undergo moisture induced phase transformation”.

In the case of `COC(=O)N[C@H](C(=O)N1CC2(CC2)C[C@H]1c1ncc(-c2ccc3c(c2)C(F)(F)c2cc(-c4ccc5nc([C@@H]6[C@H]7CC[C@H](C7)N6C(=O)[C@@H](NC(=O)OC)C(C)C)[nH]c5c4)ccc2-3)[nH]1)C(C)C` [Compound I Form V, (1-{3-[6-(9,9-difluoro-7-{2-[5-(2-methoxycarbonylamino-3-methyl-butyryl)-5-aza-spiro[2.4]hept-6-yl]-3H-imidazol-4-yl}-9H-fluoren-2-yl)-1H-benzoimidazol-2-yl]-2-aza-bicyclo[2.2.1]heptane-2-carbonyl}-2-methyl-propyl)-carbamic acid methyl ester ethyl acetate solvate], the “hygroscopicity by DVS (words)” value in data set [1] (listed as Form V) was “non-hygroscopic”.

With `COC(=O)N[C@H](C(=O)N1CC2(CC2)C[C@H]1c1ncc(-c2ccc3c(c2)C(F)(F)c2cc(-c4ccc5nc([C@@H]6[C@H]7CC[C@H](C7)N6C(=O)[C@@H](NC(=O)OC)C(C)C)[nH]c5c4)ccc2-3)[nH]1)C(C)C` [Compound I Form VIII, (1-{3-[6-(9,9-difluoro-7-{2-[5-(2-methoxycarbonylamino-3-methyl-butyryl)-5-aza-spiro[2.4]hept-6-yl]-3H-imidazol-4-yl}-9H-fluoren-2-yl)-1H-benzoimidazol-2-yl]-2-aza-bicyclo[2.2.1]heptane-2-carbonyl}-2-methyl-propyl)-carbamic acid methyl ester], the “stability in water (slurry test)” value in data set [2] is “stable in water”. The “water absorbed (DVS)” value in data set [1] is given as “roughly one equivalent of water”.

In the case of `COC(=O)N[C@H](C(=O)N1CC2(CC2)C[C@H]1c1ncc(-c2ccc3c(c2)C(F)(F)c2cc(-c4ccc5nc([C@@H]6[C@H]7CC[C@H](C7)N6C(=O)[C@@H](NC(=O)OC)C(C)C)[nH]c5c4)ccc2-3)[nH]1)C(C)C` [Compound I Form III, (1-{3-[6-(9,9-difluoro-7-{2-[5-(2-methoxycarbonylamino-3-methyl-butyryl)-5-aza-spiro[2.4]hept-6-yl]-3H-imidazol-4-yl}-9H-fluoren-2-yl)-1H-benzoimidazol-2-yl]-2-aza-bicyclo[2.2.1]heptane-2-carbonyl}-2-methyl-propyl)-carbamic acid methyl ester], in data set [1] (listed as Form III), the “moisture uptake / weight gain (DVS)” value is “less than 0.3%” and the “hygroscopicity by DVS (words)” value was “nonhygroscopic”.

As to `COC(=O)N[C@H](C(=O)N1CC2(CC2)C[C@H]1c1ncc(-c2ccc3c(c2)C(F)(F)c2cc(-c4ccc5nc([C@@H]6[C@H]7CC[C@H](C7)N6C(=O)[C@@H](NC(=O)OC)C(C)C)[nH]c5c4)ccc2-3)[nH]1)C(C)C` [Compound I Form XV, (1-{3-[6-(9,9-difluoro-7-{2-[5-(2-methoxycarbonylamino-3-methyl-butyryl)-5-aza-spiro[2.4]hept-6-yl]-3H-imidazol-4-yl}-9H-fluoren-2-yl)-1H-benzoimidazol-2-yl]-2-aza-bicyclo[2.2.1]heptane-2-carbonyl}-2-methyl-propyl)-carbamic acid methyl ester], in data set [1] (listed as Form XV), the “hygroscopicity by DVS (words)” value is on record as “non-hygroscopic”.

In the case of `COC(=O)N[C@H](C(=O)N1CC2(CC2)C[C@H]1c1ncc(-c2ccc3c(c2)C(F)(F)c2cc(-c4ccc5nc([C@@H]6[C@H]7CC[C@H](C7)N6C(=O)[C@@H](NC(=O)OC)C(C)C)[nH]c5c4)ccc2-3)[nH]1)C(C)C` [Compound I, (1-{3-[6-(9,9-difluoro-7-{2-[5-(2-methoxycarbonylamino-3-methyl-butyryl)-5-aza-spiro[2.4]hept-6-yl]-3H-imidazol-4-yl}-9H-fluoren-2-yl)-1H-benzoimidazol-2-yl]-2-aza-bicyclo[2.2.1]heptane-2-carbonyl}-2-methyl-propyl)-carbamic acid methyl ester], the solubility in data set [3] was under 1 µg/mL.

Consider `COC(=O)N[C@H](C(=O)N1CC2(CC2)C[C@H]1c1ncc(-c2ccc3c(c2)C(F)(F)c2cc(-c4ccc5nc([C@@H]6[C@H]7CC[C@H](C7)N6C(=O)[C@@H](NC(=O)OC)C(C)C)[nH]c5c4)ccc2-3)[nH]1)C(C)C` [Compound I Form II, (1-{3-[6-(9,9-difluoro-7-{2-[5-(2-methoxycarbonylamino-3-methyl-butyryl)-5-aza-spiro[2.4]hept-6-yl]-3H-imidazol-4-yl}-9H-fluoren-2-yl)-1H-benzoimidazol-2-yl]-2-aza-bicyclo[2.2.1]heptane-2-carbonyl}-2-methyl-propyl)-carbamic acid methyl ester monoacetone solvate], for which the dissolution rate ranking entry in data set [4] is listed as “slowest dissolution rate”. For the same compound, the “photostability compared with amorphous Compound I and partially amorphous HCl salt” value in data set [5] is given as “best photostability among the three forms compared”. For the same compound, in data set [5] (solid), the “overall decrease in HPLC % AN (amount of photodegradation)” value amounted to 2.24 % AN.

As to `COC(=O)N[C@H](C(=O)N1CC2(CC2)C[C@H]1c1ncc(-c2ccc3c(c2)C(F)(F)c2cc(-c4ccc5nc([C@@H]6[C@H]7CC[C@H](C7)N6C(=O)[C@@H](NC(=O)OC)C(C)C)[nH]c5c4)ccc2-3)[nH]1)C(C)C` [Compound I D-tartrate, (1-{3-[6-(9,9-difluoro-7-{2-[5-(2-methoxycarbonylamino-3-methyl-butyryl)-5-aza-spiro[2.4]hept-6-yl]-3H-imidazol-4-yl}-9H-fluoren-2-yl)-1H-benzoimidazol-2-yl]-2-aza-bicyclo[2.2.1]heptane-2-carbonyl}-2-methyl-propyl)-carbamic acid D-tartrate], the “physical form by XRPD after slurry in various solvents” value in data set [6] is on record as “physical form did not change”. In data set [1], the “moisture uptake / weight gain (DVS)” value was “less than 3%”.

Source of the values: US9139570B2, “Solid forms of an antiviral compound” (priority 2012, dated 2015).
